From patent US20020137929A1, “1 - (3-heterocyclylphenyl) isothiourea, -isourea, -guanidine and -amidine herbicidal agents” (Intellectual Property Department, BASF Aktiengesellschaft, priority 1998, published 2002)

How the values were obtained:
ABUTH (Velvetleaf) = test: Postemergence herbicidal evaluation; format: in vivo, Abutilon theophrasti
Outline: (§1)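 ~2-wk seedlings; postemergence spray, 40 psi; vehicle 1:1 acetone:water + 0.5% Tween 20; rate ≈0.0156–0.500 kg/ha; greenhouse hold; scored 4–5 wk after treatment, 0–9 scale vs control; repeat tests averaged.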

AMBEL (Ragweed, Common) = test: Postemergence herbicidal evaluation; format: in vivo, Ambrosia artemisifolia
Outline: as §1

[1] = tested on: IPOHE (Morningglory, Ivyleaf); test: Postemergence herbicidal evaluation; format: in vivo, Ipomoea hederacea
Outline: as §1

ECHCG (Barnyardgrass) [2] = test: Postemergence herbicidal evaluation; format: in vivo, Echinochloa crus-galli
Outline: as §1

SETVI (Foxtail, Green) = test: Postemergence herbicidal evaluation; format: in vivo, Setaria viridis
Outline: as §1

[3] = tested on: GLXMAW (Soybean, Williams); test: Postemergence herbicidal evaluation; format: in vivo, Glycine max, (L.) Merr. cv Williams
Outline: as §1

[4] = tested on: TRZAWR (Wheat, Winter, cv Riband); test: Postemergence herbicidal evaluation; format: in vivo, Triticum aestivum
Outline: as §1

CASOB (Sicklepod) = test: Preemergence herbicidal evaluation; format: in vivo, Cassia obtusifolia; settings: rated 4-5 weeks after treatment
Outline: (§2)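 Visual 0-9 rating vs control (stand, vigor, malformation, size, chlorosis, overall appearance), scored 4-5 wk after spraying. Seeded soil cups were treated preemergence with compound in aqueous acetone, ~0.0156-0.500 kg/ha equivalent.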

[5] = tested on: CHEAL (Lambsquarters, Common); test: Preemergence herbicidal evaluation; format: in vivo, Chenopodium album; settings: rated 4-5 weeks after treatment
Outline: as §2

GALAP (Galium) = test: Preemergence herbicidal evaluation; format: in vivo, Galium aparine; settings: rated 4-5 weeks after treatment
Outline: as §2

[6] = tested on: IPOHE (Morningglory, Ivyleaf); test: Preemergence herbicidal evaluation; format: in vivo, Ipomoea hederacea; settings: rated 4-5 weeks after treatment
Outline: as §2

ECHCG (Barnyardgrass) [7] = test: Preemergence herbicidal evaluation; format: in vivo, Echinochloa crus-galli; settings: rated 4-5 weeks after treatment
Outline: as §2

ZEAMX (Corn, Field) = test: Preemergence herbicidal evaluation; format: in vivo, Zea mays; settings: rated 4-5 weeks after treatment
Outline: as §2

[8] = tested on: ECHORC (Watergrass (Calif.)); test: Postemergence weed control under flooded paddy conditions; format: in vivo, Echinochloa oryzoides; settings: postemergence weeds, rated 3 to 4 weeks after treatment
Outline: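 Flood-water application, about 0.0313–0.500 kg/ha a.i. in aqueous/acetone 50/50 v/v; water depth 1.5–3 cm throughout. Weeds 3–5 cm, rice 1.5–2.5 leaf. Greenhouse; 0–9 visual rating vs control at 3–4 wk.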

## CN1C(=O)C(CC(=O)O)SC1=Nc1cc(-n2c(=O)cc(C(F)(F)F)n(C)c2=O)c(F)cc1Cl (stereo not drawn) [Compound 63, 2-{{2-Chloro-5-[3,6-dihydro-3-methyl-2,6-dioxo-4-(trifluoromethyl)-1(2H)-pyrimidinyl]-4-fluoro-phenyl}imino}-3-methyl-4-oxo-5-thiazolidineacetic acid]
ABUTH (Velvetleaf); Rate 0.0158 kg/ha
  Postemergence herbicidal rating ABUTH: 9.0
ABUTH (Velvetleaf); Rate 0.0315 kg/ha
  Postemergence herbicidal rating ABUTH: 6.0
ABUTH (Velvetleaf); Rate 0.0630 kg/ha
  Postemergence herbicidal rating ABUTH: 9.0
AMBEL (Ragweed, Common); Rate 0.0158 kg/ha
  Postemergence herbicidal rating AMBEL: 6.0
AMBEL (Ragweed, Common); Rate 0.0315 kg/ha
  Postemergence herbicidal rating AMBEL: 6.0
AMBEL (Ragweed, Common); Rate 0.0630 kg/ha
  Postemergence herbicidal rating AMBEL: 9.0
[1]; Rate 0.0158 kg/ha
  Postemergence herbicidal rating IPOHE: 9.0
[1]; Rate 0.0315 kg/ha
  Postemergence herbicidal rating IPOHE: 9.0
[1]; Rate 0.0630 kg/ha
  Postemergence herbicidal rating IPOHE: 9.0
ECHCG (Barnyardgrass) [2]; Rate 0.0158 kg/ha
  Postemergence herbicidal rating ECHCG: 2.0
ECHCG (Barnyardgrass) [2]; Rate 0.0315 kg/ha
  Postemergence herbicidal rating ECHCG: 2.0
ECHCG (Barnyardgrass) [2]; Rate 0.0630 kg/ha
  Postemergence herbicidal rating ECHCG: 6.0
SETVI (Foxtail, Green); Rate 0.0158 kg/ha
  Postemergence herbicidal rating SETVI: 9.0
SETVI (Foxtail, Green); Rate 0.0315 kg/ha
  Postemergence herbicidal rating SETVI: 9.0
SETVI (Foxtail, Green); Rate 0.0630 kg/ha
  Postemergence herbicidal rating SETVI: 9.0
[3]; Rate 0.0158 kg/ha
  Postemergence herbicidal rating GLXMAW: 6.5
[3]; Rate 0.0315 kg/ha
  Postemergence herbicidal rating GLXMAW: 8.5
[3]; Rate 0.0630 kg/ha
  Postemergence herbicidal rating GLXMAW: 7.5
[4]; Rate 0.0158 kg/ha
  Postemergence herbicidal rating TRZAWR: 5.5
[4]; Rate 0.0315 kg/ha
  Postemergence herbicidal rating TRZAWR: 6.0
[4]; Rate 0.0630 kg/ha
  Postemergence herbicidal rating TRZAWR: 7.0
CASOB (Sicklepod); rate 0.0156 kg/ha
  Preemergence herbicidal rating CASOB: 0.0
CASOB (Sicklepod); rate 0.0313 kg/ha
  Preemergence herbicidal rating CASOB: 2.0
CASOB (Sicklepod); rate 0.0625 kg/ha
  Preemergence herbicidal rating CASOB: 2.0
CASOB (Sicklepod); rate 0.1250 kg/ha
  Preemergence herbicidal rating CASOB: 2.0
CASOB (Sicklepod); rate 0.2500 kg/ha
  Preemergence herbicidal rating CASOB: 7.0
[5]; rate 0.0313 kg/ha
  Preemergence herbicidal rating CHEAL: 7.0
[5]; rate 0.0625 kg/ha
  Preemergence herbicidal rating CHEAL: 9.0
[5]; rate 0.1250 kg/ha
  Preemergence herbicidal rating CHEAL: 9.0
[5]; rate 0.2500 kg/ha
  Preemergence herbicidal rating CHEAL: 9.0
GALAP (Galium); rate 0.0156 kg/ha
  Preemergence herbicidal rating GALAP: 0.0
GALAP (Galium); rate 0.0313 kg/ha
  Preemergence herbicidal rating GALAP: 0.0
GALAP (Galium); rate 0.0625 kg/ha
  Preemergence herbicidal rating GALAP: 0.0
GALAP (Galium); rate 0.1250 kg/ha
  Preemergence herbicidal rating GALAP: 9.0
GALAP (Galium); rate 0.2500 kg/ha
  Preemergence herbicidal rating GALAP: 9.0
[6]; rate 0.0156 kg/ha
  Preemergence herbicidal rating IPOHE: 0.0
[6]; rate 0.0313 kg/ha
  Preemergence herbicidal rating IPOHE: 1.0
[6]; rate 0.0625 kg/ha
  Preemergence herbicidal rating IPOHE: 6.0
[6]; rate 0.1250 kg/ha
  Preemergence herbicidal rating IPOHE: 7.0
[6]; rate 0.2500 kg/ha
  Preemergence herbicidal rating IPOHE: 9.0
ECHCG (Barnyardgrass) [7]; rate 0.0156 kg/ha
  Preemergence herbicidal rating ECHCG: 0.0
ECHCG (Barnyardgrass) [7]; rate 0.0313 kg/ha
  Preemergence herbicidal rating ECHCG: 0.0
ECHCG (Barnyardgrass) [7]; rate 0.0625 kg/ha
  Preemergence herbicidal rating ECHCG: 1.0
ECHCG (Barnyardgrass) [7]; rate 0.1250 kg/ha
  Preemergence herbicidal rating ECHCG: 4.0
ECHCG (Barnyardgrass) [7]; rate 0.2500 kg/ha
  Preemergence herbicidal rating ECHCG: 9.0
ZEAMX (Corn, Field); rate 0.0156 kg/ha
  Preemergence herbicidal rating ZEAMX: 0.0
ZEAMX (Corn, Field); rate 0.0313 kg/ha
  Preemergence herbicidal rating ZEAMX: 1.0
ZEAMX (Corn, Field); rate 0.0625 kg/ha
  Preemergence herbicidal rating ZEAMX: 2.0
ZEAMX (Corn, Field); rate 0.1250 kg/ha
  Preemergence herbicidal rating ZEAMX: 6.0
ZEAMX (Corn, Field); rate 0.2500 kg/ha
  Preemergence herbicidal rating ZEAMX: 7.0
[8]; Rate 0.0313 kg/ha
  Herbicidal rating ECHORC: 0.0
[8]; Rate 0.0625 kg/ha
  Herbicidal rating ECHORC: 0.0
[8]; Rate 0.1250 kg/ha
  Herbicidal rating ECHORC: 5.0
[8]; Rate 0.2500 kg/ha
  Herbicidal rating ECHORC: 5.0
